From patent US7253171B2 (Laboratorios Almirall, S.A., priority 2001, dated 2007)
Like-named read-outs stand apart in the source and are kept apart here.

Assays:
[1] = target: T1, α4β7 integrin (Homo sapiens, UniProt P13612+P26010); test: RPMI 8866 cell adhesion to mouse MAdCAM-1 (α4β7 binding assay); format: cell-based; settings: RPMI 8866 cells, immobilized mouse MAdCAM-1
T1 construct: endogenous in cells; host or cells: RPMI 8866 cells
T1 sequence (P13612 34-1032): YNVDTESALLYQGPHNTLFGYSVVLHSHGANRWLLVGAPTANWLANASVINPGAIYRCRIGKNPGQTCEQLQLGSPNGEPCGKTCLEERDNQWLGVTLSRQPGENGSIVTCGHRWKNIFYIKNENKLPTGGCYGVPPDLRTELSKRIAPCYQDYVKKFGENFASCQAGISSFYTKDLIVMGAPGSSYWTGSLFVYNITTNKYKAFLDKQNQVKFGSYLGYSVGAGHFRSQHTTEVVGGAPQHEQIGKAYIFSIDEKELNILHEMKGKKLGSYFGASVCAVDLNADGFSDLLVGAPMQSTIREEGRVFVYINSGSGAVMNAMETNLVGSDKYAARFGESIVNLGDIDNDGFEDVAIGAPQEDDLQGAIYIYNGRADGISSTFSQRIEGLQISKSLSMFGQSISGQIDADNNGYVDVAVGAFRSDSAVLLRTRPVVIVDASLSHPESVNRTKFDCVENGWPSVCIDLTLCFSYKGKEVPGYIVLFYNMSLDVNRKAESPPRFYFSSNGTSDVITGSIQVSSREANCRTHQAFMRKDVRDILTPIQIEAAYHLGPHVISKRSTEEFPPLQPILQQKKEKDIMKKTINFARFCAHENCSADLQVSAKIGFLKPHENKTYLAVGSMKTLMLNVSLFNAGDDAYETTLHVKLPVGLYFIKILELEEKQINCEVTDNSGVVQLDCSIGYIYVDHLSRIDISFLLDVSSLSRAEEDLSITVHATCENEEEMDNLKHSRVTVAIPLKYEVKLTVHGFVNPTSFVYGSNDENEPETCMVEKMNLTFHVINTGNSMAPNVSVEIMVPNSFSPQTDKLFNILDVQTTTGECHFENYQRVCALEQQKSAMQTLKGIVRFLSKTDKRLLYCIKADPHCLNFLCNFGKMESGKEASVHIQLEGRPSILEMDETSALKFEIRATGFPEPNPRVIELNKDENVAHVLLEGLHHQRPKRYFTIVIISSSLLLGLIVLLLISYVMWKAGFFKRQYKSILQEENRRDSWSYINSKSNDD
T1 sequence (P26010 20-798): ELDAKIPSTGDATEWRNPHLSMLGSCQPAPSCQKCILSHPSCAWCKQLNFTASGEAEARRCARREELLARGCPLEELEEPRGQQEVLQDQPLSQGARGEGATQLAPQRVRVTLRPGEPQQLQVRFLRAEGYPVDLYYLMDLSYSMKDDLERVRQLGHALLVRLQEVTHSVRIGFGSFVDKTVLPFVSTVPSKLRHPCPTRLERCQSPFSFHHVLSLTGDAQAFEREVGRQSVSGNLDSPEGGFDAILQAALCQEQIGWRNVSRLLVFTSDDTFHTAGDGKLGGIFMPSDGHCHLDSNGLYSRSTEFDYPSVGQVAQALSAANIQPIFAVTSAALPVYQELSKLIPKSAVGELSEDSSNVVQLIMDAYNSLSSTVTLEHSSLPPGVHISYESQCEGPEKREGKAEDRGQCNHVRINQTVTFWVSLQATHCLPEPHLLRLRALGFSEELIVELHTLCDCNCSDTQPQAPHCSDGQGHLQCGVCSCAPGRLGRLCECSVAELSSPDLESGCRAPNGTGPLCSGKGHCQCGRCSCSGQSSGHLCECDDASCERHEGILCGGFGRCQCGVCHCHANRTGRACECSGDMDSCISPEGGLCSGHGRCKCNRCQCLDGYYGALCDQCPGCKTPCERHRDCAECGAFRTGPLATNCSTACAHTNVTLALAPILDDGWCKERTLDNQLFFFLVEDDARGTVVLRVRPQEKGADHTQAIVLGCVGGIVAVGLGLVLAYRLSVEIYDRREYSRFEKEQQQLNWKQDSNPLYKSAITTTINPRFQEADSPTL
Description: RPMI 8866 Cell Adhesion to Mouse MAdCAM-1 (α4β7 Binding Assay)
Recombinant mouse MAdCAM-1 was coated on a 96-well plate overnight. Unbound MAdCAM-1 was washed away and plates were blocked with 0,5% BSA. Cells were labelled with BCECF-AM and added to ligand-coated wells. Test compounds were added to the wells followed by RPMI 8866 and the adhesion assay was performed for 45 min at room temperature. Following incubation, the wells were emptied and washed. Inhibition of binding was measured by the quantity of fluorescence bound to the plate for each of the various concentrations of test compound, as well as for controls containing no test compound, with a Cytofluor 2300 fluorescence measurement system.

[2] = target: T2, α4β1 integrin (Homo sapiens, UniProt P05556+P13612); test: U-937 cell adhesion to human VCAM-1 (α4β1 binding assay); format: cell-based; settings: U-937 cells, immobilized human VCAM-1; read-out: IC50 values in the α4β1 assays
T2 construct: endogenous in cells; host or cells: U-937 cells
Description: U-937 Cell Adhesion to Human VCAM-1 (α4β1 Binding Assay)
Recombinant human soluble VCAM-1 (R&D Systems Ltd., UK) at 2 μg/ml in PBS was immobilized overnight onto microtiter plates. Unbound VCAM-1 was washed away and VCAM-1 coated plates were blocked with bovine serum albumin (BSA) 2,5% in PBS for 2 h at room temperature. U-937 cells were labelled with 5-carboxyfluorescein diacetate (5-CFDA) in order to detect bound cells to the wells. Test compounds were added to the wells followed by U-937 cells and the adhesion assay was performed for 1 h at 37° C. Following incubation, the wells were emptied and washed. Inhibition of binding was measured by the quantity of fluorescence bound to the plate for each of the various concentrations of test compound, as well as for controls containing no test compound, with a Cytofluor 2300 fluorescence measurement system.

[3] = read-out: IC50 values in the α4β7 assays
[4] = read-out: IC50 values in the α4β7

T2 sequence (P05556 21-798, one chain of several): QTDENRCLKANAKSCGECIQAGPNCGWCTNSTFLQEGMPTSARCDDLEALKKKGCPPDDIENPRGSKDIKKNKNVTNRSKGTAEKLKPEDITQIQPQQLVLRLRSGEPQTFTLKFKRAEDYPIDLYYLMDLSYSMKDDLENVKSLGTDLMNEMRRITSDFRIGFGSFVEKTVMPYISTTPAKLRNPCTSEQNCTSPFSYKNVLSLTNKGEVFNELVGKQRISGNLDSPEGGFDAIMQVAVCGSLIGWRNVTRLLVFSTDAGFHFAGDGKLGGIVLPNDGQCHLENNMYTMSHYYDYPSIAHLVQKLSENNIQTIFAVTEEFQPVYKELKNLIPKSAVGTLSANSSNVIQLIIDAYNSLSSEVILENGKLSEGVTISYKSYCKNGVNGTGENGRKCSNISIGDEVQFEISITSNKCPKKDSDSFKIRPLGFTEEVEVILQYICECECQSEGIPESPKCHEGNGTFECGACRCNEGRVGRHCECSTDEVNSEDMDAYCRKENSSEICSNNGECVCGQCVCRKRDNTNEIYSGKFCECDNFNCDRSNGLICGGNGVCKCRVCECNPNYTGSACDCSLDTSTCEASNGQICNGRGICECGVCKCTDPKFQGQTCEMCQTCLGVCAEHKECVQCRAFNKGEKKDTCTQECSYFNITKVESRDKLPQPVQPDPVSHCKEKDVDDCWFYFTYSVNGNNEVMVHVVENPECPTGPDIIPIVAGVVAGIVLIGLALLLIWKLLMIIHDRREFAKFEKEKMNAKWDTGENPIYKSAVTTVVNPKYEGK

| Compound | IC50 [1, 3] | IC50 [2] | IC50 [1, 4] |
| --- | --- | --- | --- |
| CN(C1CCCCC1)S(=O)(=O)c1ccccc1NC(=O)N[C@@H](Cc1ccc(NC(=O)c2c(Cl)cccc2Cl)cc1)C(=O)O [Example 40] | 1000 to 10000 nM | < 100 nM |  |
| CCCN(C(=O)N[C@@H](Cc1ccc(NC(=O)c2c(Cl)cncc2Cl)cc1)C(=O)O)c1ccccc1C(=O)N(C)C1CCCCC1 [Example 82] |  | < 100 nM | < 100 nM |
| CN(C(=O)c1ccccc1N(CC1CC1)C(=O)N[C@@H](Cc1ccc(NC(=O)c2c(Cl)cncc2Cl)cc1)C(=O)O)C1CCCCC1 [Example 83] |  | < 100 nM | < 100 nM |
| CN1CCN(C(=O)Oc2ccc(C[C@H](NC(=O)Nc3ccccc3S(=O)(=O)c3ccccc3)C(=O)O)cc2)CC1 [Example 114, 4-Methylpiperazine-1-carboxylic acid 4-{(S)-2-[3-(2-benzenesulfonylphenyl)ureido]-2-carboxyethyl}phenyl ester] | 1000 to 10000 nM |  |  |
| CN(C(=S)N[C@@H](Cc1ccc(NC(=O)c2c(Cl)cncc2Cl)cc1)C(=O)O)c1ccccc1Cc1ccccc1 [Example 144, (S)-2-[3-(2-Benzylphenyl)-3-methylthioureido]-3-(4-{[1-(3,5-dichloropyridin-4-yl)methanoyl]amino}phenyl)propionic acid] |  | < 100 nM |  |
| CN(C(=S)N[C@@H](Cc1ccc(NC(=O)c2c(Cl)cncc2Cl)cc1)C(=O)O)c1ccccc1C(=O)N(C)C1CCCCC1 [Example 146] |  | < 100 nM |  |
| O=C(Nc1ccc(C[C@H](NC(=S)Nc2ccccc2S(=O)(=O)N2CCCCC2)C(=O)O)cc1)c1c(Cl)cncc1Cl [Example 147] |  | < 100 nM |  |

The next lines start with results.

| IC50 [1, 3] | IC50 [2] | Compound | IC50 [1, 4] |
| --- | --- | --- | --- |
| 1000 to 10000 nM | < 100 nM | CN(C(=O)N[C@@H](Cc1ccc(NC(=O)c2c(Cl)cccc2Cl)cc1)C(=O)O)c1ccccc1S(=O)(=O)c1ccccc1 [Example 23, (S)-2-[3-(2-Benzenesulfonylphenyl)-3-methylureido]-3-[4-(2,6-dichlorobenzoylamino)phenyl]propionic acid] |  |
| 1000 to 10000 nM | < 100 nM | O=C(Nc1ccccc1S(=O)(=O)N1CCCCC1)N[C@@H](Cc1ccc(NC(=O)c2c(Cl)cccc2Cl)cc1)C(=O)O [Example 38, (S)-3-[4-(2,6-Dichlorobenzoylamino)phenyl]-2-{3-[2-(piperdine-1-sulfonyl)phenyl]ureido}propionic acid] |  |
| 1000 to 10000 nM | < 100 nM | CN(C(=O)N[C@@H](Cc1ccc(NC(=O)c2c(Cl)cccc2Cl)cc1)C(=O)O)c1ccccc1S(=O)(=O)N1CCCCC1 [Example 76, (S)-3-[4-(2,6-Dichlorobenzoylamino)phenyl]-2-{3-methyl-3-[2-(piperidine-1-sulfonyl)-phenyl]ureido}propionic acid] |  |
|  | < 100 nM | CN1CCN(S(=O)(=O)c2ccccc2NC(=O)N[C@@H](Cc2ccc(NC(=O)c3c(Cl)cncc3Cl)cc2)C(=O)O)CC1 [Example 90, (S)-3-(4-{[1-(3,5-Dichloropyridin-4-yl)methanoyl]amino}phenyl)-2-{3-[2-(4-methylpiperazine-1-sulfonyl)phenyl]ureido}propionic acid] | < 100 nM |
|  | < 100 nM | O=C(Nc1ccccc1S(=O)(=O)c1ccccc1)N[C@@H](Cc1ccc(Nc2nccc3cnccc23)cc1)C(=O)O [Example 122, (S)-2-[3-(2-Benzenesulfonylphenyl)ureido]-3-[4-([2,6]naphthyridin-1-ylamino)phenyl]propionic acid] |  |
|  | < 100 nM | O=C(Nc1ccccc1S(=O)(=O)N1CCCCC1)N[C@@H](Cc1ccc(Nc2nccc3cnccc23)cc1)C(=O)O [Example 124, (S)-3-[4-([2,6]Naphthyridin-1-ylamino)phenyl]-2-{3-[2-(piperidine-1-sulfonyl)phenyl]ureido}propionic acid] |  |
|  | < 100 nM | O=C(Nc1ccccc1S(=O)(=O)c1ccccc1)N[C@@H](Cc1ccc(Nc2nccc3ccncc23)cc1)C(=O)O [Example 128, (S)-2-[3-(2-Benzenesulfonylphenyl)ureido]-3-[4-([2,7]naphthyridin-1-ylamino)phenyl]propionic acid] |  |
|  | < 100 nM | O=C(Nc1ccccc1S(=O)(=O)N1CCCCC1)N[C@@H](Cc1ccc(Nc2nccc3ccncc23)cc1)C(=O)O [Example 130, (S)-3-[4-([2,7]Naphthyridin-1ylamino)-phenyl]-2-{3-[2-(piperidine-1-sulfonyl)phenyl]ureido}propionic acid] |  |
|  | < 100 nM | O=C(Nc1ccccc1S(=O)(=O)c1ccccc1)N[C@@H](Cc1ccc(Oc2nccc3cnccc23)cc1)C(=O)O [Example 134, (S)-2-[3-(2-Benzenesulfonylphenyl)ureido]-3-[4-([2,6]naphthyridin-1-yloxy)phenyl]propionic acid] |  |
|  | < 100 nM | O=C(Nc1ccccc1S(=O)(=O)N1CCCCC1)N[C@@H](Cc1ccc(Oc2nccc3cnccc23)cc1)C(=O)O [Example 136, (S)-3-[4-([2,6]Naphthyridin-1-yloxy)phenyl]-2-{3-[2-(piperidine-1-sulfonyl)phenyl]ureido}propionic acid] |  |
|  | < 100 nM | O=C(Nc1ccccc1S(=O)(=O)N1CCCCC1)N[C@@H](Cc1ccc(Oc2nccc3ccncc23)cc1)C(=O)O [Example 140, (S)-3-[4-([2,7]Naphthyridin-1-yloxy)phenyl]-2-{3-[2-(piperidine-1-sulfonyl)phenyl]ureido}propionic acid] |  |
